Assay results reported in US10973810B2, “Methods for the treatment of neurological disorders” (Yumanity Therapeutics, Inc., priority 2017, dated 2021).

Experiments:
Format in all cases: cell-based
[1] = tested on: alpha-synuclein (A53T) transfected rat cortical neurons; experiment: Neurite degeneration assay in transfected rat cortical neurons
Protocol: Rat primary cortical neurons cultured in 96-well plates (Greiner Bio-One) were co-transfected with a fluorescence reporter plasmid (encoding mKate2) and empty or alpha-synuclein-A53T overexpression plasmids by lipofection at 5-6 div (days in vitro). LIPOFECTAMINE® 2000 transfection reagent (Thermo Fisher) (0.5 μl/well) was diluted in NEUROBASAL® media (Thermo Fisher) and incubated for 5-10 min. The LIPOFECTAMINE®/NEUROBASAL® mixture was then added dropwise to a plasmid cocktail diluted in NEUROBASAL® media, and incubated for approximately 40 min. During this time, conditioned media on the neurons was replaced with media containing 1× kynurenic Acid (Sigma-Aldrich) in NEUROBASAL® media (NBKY). LIPOFECTAMINE®/DNA complex solutions were subsequently added dropwise to neurons in the NBKY media in the 96-well plate. Lipofection was carried out for 30-40 min in a standard cell culture incubator (37° C., 5% CO2). Neurons were then washed with NEUROBASAL® media, and 50% conditioned/50% fresh NEUROBASAL® media containing B-27 supplement and GlutaMax™ (Thermo Fisher) (NBM) was applied to the cultures.
Transfected rat cortical neuron cultures were treated with DMSO or CAY10566 compound 4-6 h post-transfection. […] Neurite lengths of transfected neurons were tracked by an RFP reporter, mKate2, and measured by NeuroTrack™ Software Module (Essen Bioscience). […]

[2] = tested on: A53T α-synuclein transfected human iPSC-derived neurons; experiment: Neuron survival, A53T α-synuclein transfected human iPSC-derived neurons; details: all tested concentrations (3 μM to 0.3 μM); relative to DMSO controls
Protocol: FIG. 16 is a graph illustrating that non-selective SCD reference inhibitor, CAY10566, reduces risk of death in A53T α-synuclein transfected human iPSC-derived neurons. Human iPSC-derived neurons were co-transfected with a fluorescence reporter plasmid encoding RFP (morphology tracer) and control plasmid (empty) or plasmid containing α-synuclein-A53T mutation (syn-A53T). Neuron groups as indicated were treated with either DMSO or CAY10566 at the indicated doses. The lifetimes of single neurons were tracked over time based on either loss of RFP fluorescence signal or morphological indicators of neuron death such as loss of neurites or cell blebbing. […] Cox proportional hazard analysis was used to estimate relative risk of death, or hazard ratio (HR) and the P value was determined by the logrank test. […]
FIG. 17 is a graph illustrating that an SCD5-selective inhibitor reduces risk of death in A53T α-synuclein transfected human iPSC-derived neurons. Human iPSC-derived neurons were co-transfected with a fluorescence reporter plasmid encoding RFP (morphology tracer) and control plasmid (empty) or plasmid containing α-synuclein-A53T mutation (syn-A53T). […] The lifetimes of single neurons were tracked over time based on either loss of RFP fluorescence signal or morphological indicators of neuron death such as loss of neurites or cell blebbing. […]

[3] = biological target: T1, yeast OLE1 (Saccharomyces cerevisiae, UniProt P21147, L450T/T449L); experiment: Growth of yeast surviving solely on yeast OLE1; details: 24 h
T1 construct: expressed in transfected cells; host or cells: S. cerevisiae ole1Δ strain (W303 pdr1Δ pdr3Δ background), plasmid pRS316 with TDH3 promoter and CYC1 terminator
T1 sequence (P21147 whole entry T449L/L450T): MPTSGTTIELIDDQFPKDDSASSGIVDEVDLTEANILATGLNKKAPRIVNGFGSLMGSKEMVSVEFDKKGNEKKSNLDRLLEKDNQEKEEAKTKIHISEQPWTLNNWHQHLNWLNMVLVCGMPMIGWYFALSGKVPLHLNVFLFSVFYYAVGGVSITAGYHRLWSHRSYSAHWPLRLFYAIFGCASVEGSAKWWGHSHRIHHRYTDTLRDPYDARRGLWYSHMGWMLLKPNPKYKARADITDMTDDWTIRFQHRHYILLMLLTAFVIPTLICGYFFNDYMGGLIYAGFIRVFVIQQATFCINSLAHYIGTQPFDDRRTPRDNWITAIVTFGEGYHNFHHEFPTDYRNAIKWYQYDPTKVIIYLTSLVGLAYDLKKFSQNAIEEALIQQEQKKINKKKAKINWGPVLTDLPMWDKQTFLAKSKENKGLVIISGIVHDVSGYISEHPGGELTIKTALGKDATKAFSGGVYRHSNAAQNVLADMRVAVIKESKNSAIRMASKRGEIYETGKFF
Source text: To generate yeast strains expressing SCD1 or SCD5 as the sole desaturase, the human SCD1 and SCD5 genes were cloned from cDNAs (Harvard PlasmID database Clone ID HsCD00340237 for SCD1 and HsCD00342695 for SCD5) into yeast plasmid pRS316 (ATCC 77145) between the yeast TDH3 promoter and the CYC1 terminator. The coding sequence of yeast OLE1 was also cloned into this plasmid). These clones were then transformed into the ole1d strain and plated on CSM-Ura media (CSM lacking uracil) with 2% glucose (w/v) and independent colonies were isolated and amplified.
For experiments using a plasmid-borne copy of Ole1, SCD1, or SCD5 (FIGS. 3B, 6, and 7), media lacking uracil (SX-Ura, where X is glucose, raffinose, or galactose), was used for all steps of the compound profiling protocol to ensure its maintenance throughout the assay.
After yeast delivery, assay plates were incubated under humidified conditions at 30° C. for 24 to 40 h. ApoE4 rescue experiments were stopped at 24 h, aSyn experiments at 40 h, Ole1 at 24 h, and SCD1/SCD5 at 40 h. The growth of yeast was monitored by reading the OD600 of each well using a microplate reader (Perkin Elmer EnVision™). For model rescue experiments, raw data were processed by background subtracting and calculating a fold-change relative to DMSO control [(EXP-0.035)/(DMSO-0.035)—where 0.035 is the OD600 contributed by an empty well containing 30 μL of media alone]. For growth inhibition of wild-type cells, raw data were processed by background subtracting and converting values to a percent of the nontreated condition for that strain [(EXP-0.035)/(DMSO-0.035)×100%].

Cc1nnc(-c2ccc(N3CCC(Oc4cc(F)ccc4Cl)CC3)nn2)o1 [CAY10566]
neurite degeneration at highest concentrations ([1]; 10 nM and 3 nM, overlapping with control cultures not transfected with alpha-synuclein A53T): complete rescue
neurite degeneration ([1]; titration from 10 nM down to 10 pM, tracked every 6 h for 7 d, relative to DMSO): concentration-dependent decrease in neurite degeneration
risk of neuron death [2]: significantly reduced
growth of yeast strain expressing Ole1 (percent of DMSO-treated condition) [3]: resistant
